Assay results taken from US8841277B2, “Methods for treating non-small cell lung cancer using 5-azacytidine” (Celgene Corporation, priority 2009, dated 2014).
“Also recorded” adds a separate entry of the source. Read-outs that look alike come from different tables or passages of the source.

Assays:
[1] = test system: LINE-1 elements in H1299 cells; experiment: LINE-1 Methylation Assay, H1299; format: cell-based; settings: for DNA hypomethylation (LINE-1 methylation): 48 hours or 72 hours
Experimental: (§1) Genomic DNA was purified from cells using the DNeasy Blood and Tissue Kit (Qiagen; Valencia, Calif.), according to the manufacturer's instructions. DNA yield was quantitated with a NanoDrop 8000 spectrophotometer (Thermo Fisher Scientific, Inc.). DNAs (1 μg/sample) were submitted to EpigenDx (Worcester, Mass.) for bisulfate conversion and pyrosequencing of LINE-1 elements. Briefly, 1 μg of DNA was bisulfite-treated using the Zymo DNA Methylation Kit (Zymo Research; Orange, Calif.) and eluted in 10 μL volume. DNA eluate (1 μL) was used for PCR with biotinylated primers to the LINE-1 locus, converting the PCR product to single-stranded DNA templates. PCR products (each 10 μL) were sequenced by Pyrosequencing PSQ96 HS System (Biotage AB), following the manufacturer's instructions (Biotage; Kungsgatan, Sweden). The methylation status of each locus was analyzed individually as a T/C SNP using QCpG software (Biotage). Percent LINE-1 methylation represents the average percent methylation of four CpG sites in duplicate samples.
(§2) At the highest drug concentration tested (3 μM), LINE-1 methylation was less affected, possibly due to reduced drug incorporation as a result of inhibited cell proliferation.

[2] = test system: LINE-1 elements in A549 cells; experiment: LINE-1 Methylation Assay, A549; format: cell-based; settings: for DNA hypomethylation (LINE-1 methylation): 48 hours or 72 hours
Experimental: as §1, §2

H1299 cells [3] = experiment: Apoptosis (AnnexinV-FITC/7-AAD), H1299; format: cell-based; settings: 0.3-10 μM
Text: (§3) For cell cycle distribution, cells were stained with the NIM-DAPI reagent (Beckman Coulter, Inc.; Fullerton, Calif.). For measurement of early- and late-apoptotic cell populations, cells were stained with AnnexinV-FITC and 7-AAD reagents (Beckman Coulter, Inc.). Samples were processed according to manufacturer's instructions and analyzed on a Cell Lab Quanta MPL flow cytometer (Beckman Coulter, Inc.). […] Data were also collected for untreated cells as control.

MDS, AML, CML, ALL, NHL = settings: e.g. treatment of MDS, Aparicio et al. 2002; cited from earlier work
H460 cells = experiment: Cell viability (CyQuant assay), H460; format: cell-based; settings: for HillSlope / LogIC50 / IC50: H460 viability, best-fit value
Experimental: (§4) Certain NSCLC cell lines (H460, H1299, A549, and H1975) were purchased from American Type Culture Collection (ATCC; Manassas, Va.). The H23NSCLC cell line was obtained from the National Cancer Institute (NCI; Bethesda, Md.). Cell lines were cultured in their respective media, as recommended by ATCC and NCI. AZA was manufactured at Aptuit (Greenwich, Conn.) for Celgene (Summit, N.J.), while DAC was purchased from Sigma-Aldrich (St. Louis, Mo.). In all experiments, cells were seeded 24 hours before drug treatment and incubated at 37° C./5% CO2, For cell viability assays, H460, H1299, A549, H23, and H1975 cells were seeded in triplicate at 1×10^3, 1×10^3, 1×10^3, 4×10^3, and 4×10^3 cells per well, respectively, in 96-well plates, using 200 μL of medium per well. Fresh drug was added every 24 hours by replacing medium with drug-containing medium. For all other assays, cells were seeded at 0.6-1.2×10^5 cells per well, in 6-well plates, using 4 mL of medium per well, with fresh drug added directly to the medium every 24 hours.
(§5) Cell viability was assessed using the CyQuant assay (Life Technologies Corporation; Carlsbad, Calif.). Fluorescence was measured with a spectrophotometer (Molecular Devices; Sunnyvale, Calif.), and EC50 values were calculated in Prism® version 5.01 (GraphPad Software, Inc.; La Jolla, Calif.), using results from three independent experiments.
The six data sets represent calculations of EC50 values from raw data using Prism®. The standard deviation among the three independent experiments was determined at each drug concentration. For some of the cell lines, Prism® was not able to calculate the EC50 for DAC. For those curves that an EC50 was available, the SE (Std. Error) was acceptable (SE of the logEC50 should be less than 0.5), meaning that the standard errors were not too large. The 95% Confidence Intervals for the EC50 were considered as a measure of error.

A549 cells [4] = experiment: Cell cycle distribution (NIM-DAPI), A549; format: cell-based
Text: These studies examined the cell cycle distribution of NSCLC cells treated with AZA or DAC using NIM-DAPI analysis.
as §3

NSCLC cell lines = experiment: Cell viability dose-response profiles, all cell lines; format: cell-based; settings: 72 hours; dose range
Experimental: as §4, with “For all other assays, cells were seeded at 0.6-1.2×10^5 cells per well, in 6-well plates, using 4 mL of medium per well, with fresh drug added directly to the medium every 24 hours.” left out
as §5
The six data sets represent calculations of EC50 values from raw data using Prism®. The standard deviation among the three independent experiments was determined at each drug concentration. […]

H1299 cells [5] = experiment: Western analysis of DNA damage and apoptosis markers, H1299; format: cell-based
Experimental: (§6) These studies also examined apoptosis using an assay for PARP cleavage. Cells studied included H460, A549, and H1299 cells.
(§7) For western analyses of protein levels, cells were washed with PBS and lysed with RIPA buffer (Cell Signaling Technology, Inc.; Danvers, Mass.) containing 350 mM NaCl and 0.1% SDS. Cell lysates were sonicated with two 5-second bursts under low amplitude (20%) using the Digital Sonic Dismembrator (Thermo Fisher Scientific, Inc.; Waltham, Mass.). Proteins were separated on 4-12% Bis-Tris NuPAGE gels (Life Technologies Corporation) and transferred to nitrocellulose membranes. DNMT1, phos-Histone-H2AX(Ser139), total Histone-H2AX, cleaved-PARP, p21, p53, and alpha-tubulin were detected using the Li-Cor Odyssey imaging system (Li-Cor Biotechnology; Lincoln, Nebr.), following incubation with the appropriate primary and secondary antibodies. The phos-Histone-H2AX(Ser139), cleaved-PARP, and p21 antibodies were from Cell Signaling Technology, Inc. The p53 and total Histone-H2AX (C-20) antibodies were from Santa Cruz Biotechnology, Inc. (Santa Cruz, Calif.). The alpha-tubulin and DNMT1 antibodies were purchased from EMD Chemicals, Inc. (Gibbstown, N.J.) and Abcam, Inc. (Cambridge, Mass.), respectively. The goat anti-Rabbit IRDye 680, goat anti-Mouse IRDye 800CW, and donkey anti-Goat IRDye 800CW secondary antibodies were from Li-Cor Biotechnology.

A549 cells [6] = experiment: Apoptosis (AnnexinV-FITC/7-AAD), A549; format: cell-based; settings: 0.3-10 μM
Text: as §3

A549 cells [7] = experiment: Western analysis of DNA damage and apoptosis markers, A549; format: cell-based; settings: for Induction of Histone H2AX phosphorylation (marker of DNA damage) / Induction of PARP cleavage (marker of apoptosis): 0.3-10 μM, 24 h to 72 h (3 days)
Experimental: as §6, §7

[8] = Homo sapiens, NCI-H460, 72 hours
[9] = 0.3-10 μM, up to 3 days of treatment

IC50 (H460 cells; [8]) [µM]	Structure (SMILES)	Concentration of peak hypomethylation (LINE-1) ([1]; 48 or 72 hours)	DNA hypomethylation (LINE-1 methylation) [1]	Concentration of peak hypomethylation (LINE-1) ([2]; 48 or 72 hours)	DNA hypomethylation (LINE-1 methylation) [2]	Early- and late-apoptotic cell populations (AnnexinV/7-AAD) (H1299 cells [3]; 48-hour treatment)	Early- and late-apoptotic cell populations (AnnexinV/7-AAD) (H1299 cells [3]; 72-hour treatment)	Anti-tumor activity in clinical trials (MDS, AML, CML, ALL, NHL)	HillSlope (H460 cells; 72 hours)	LogIC50 (H460 cells; 72 hours)	Cell cycle distribution (NIM DAPI) (A549 cells [4]; 48-hour treatment, 0.3-10 μM)	Cell cycle distribution (NIM DAPI) (A549 cells [4]; 72-hour treatment, 0.3-10 μM)	Cell cycle distribution (NIM DAPI) (A549 cells [4]; summary of studies)	Viability profile at high doses (NSCLC cell lines)	Induction of Histone H2AX phosphorylation (H1299 cells [5]; [9])	Induction of PARP cleavage (H1299 cells [5]; [9])	Early- and late-apoptotic cell populations (AnnexinV/7-AAD) (A549 cells [6]; 48-hour treatment)	Induction of Histone H2AX phosphorylation (marker of DNA damage) (A549 cells [7])	Induction of PARP cleavage (marker of apoptosis) (A549 cells [7])	other results
113	Nc1ncn([C@H]2C[C@H](O)[C@@H](CO)O2)c(=O)n1 [DAC, 5-aza-2′-deoxycytidine]	0.1 μM	induced DNA hypomethylation; also recorded: caused a decrease in LINE-1 methylation	0.1 μM	induced DNA hypomethylation; also recorded: caused a decrease in LINE-1 methylation	very slight increase in these cell populations	very slight increase in these cell populations	significant anti-tumor activity	−0.3814	2.053	induced an increase of cells in G2/M	induced an increase of cells in G2/M	induced an increase of cells in G2/M	cytostatic activity at high doses	did not have any effect	did not have any effect	very slight increase in these cell populations	did not have any effect and not	did not have any effect and not	Potency in decreasing LINE-1 methylation relative to AZA ([1]; 48 or 72 hours): 3- to 10 fold; Potency in decreasing LINE-1 methylation relative to AZA ([2]; 48 or 72 hours): 3- to 10 fold; EC50 (H460 cells; Homo sapiens, NCI-H460, H460, 72 hours, read-out: EC50 of effect on viability): > 25 µM; Induction of Histone H2AX phosphorylation (H1299 cells [5]; 6 days of treatment): induced strong; Induction of PARP cleavage (H1299 cells [5]; 6 days of treatment): failed to induce significant; Early- and late-apoptotic cell populations (AnnexinV/7-AAD) (A549 cells [6]; 72-hour treatment): very slight increase in these cell populations; also recorded: slight increase in early-apoptotic (AnnexinV^+ 7-AAD^−) cells only; p21 expression (A549 cells [7]; 24 h and 48 h): induce; p53 expression (A549 cells [7]; 24 h and 48 h): induce; Induction of Histone H2AX phosphorylation (A549 cells [7]; 6 days of treatment): lack of induction; Induction of PARP cleavage (A549 cells [7]; 6 days of treatment): lack of induction
1.74	Nc1ncn([C@@H]2O[C@H](CO)[C@@H](O)[C@H]2O)c(=O)n1 [AZA, 4-amino-1-β-D-ribofuranosyl-1,3,5-triazin-2(1H)-one]	0.3-1 μM	induced DNA hypomethylation; also recorded: caused a decrease in LINE-1 methylation	0.3-1 μM	induced DNA hypomethylation; also recorded: caused a decrease in LINE-1 methylation	dramatic increase in early-apoptotic (AnnexinV^+ 7-AAD^−) and late-apoptotic (AnnexinV^+ 7-AAD^+) cells	dramatic increase in early-apoptotic (AnnexinV^+ 7-AAD^−) and late-apoptotic (AnnexinV^+ 7-AAD^+) cells	significant anti-tumor activity	−0.8940	0.2413	induced accumulation of cells in G2/M and Sub-G1	induced accumulation of cells in G2/M and Sub-G1	induced accumulation of cells in G2/M and Sub-G1	cytotoxic activities at high doses	induced	induced	dramatic increase in early-apoptotic (AnnexinV^+ 7-AAD^−) and late-apoptotic (AnnexinV^+ 7-AAD^+) cells	induced	induced	EC50 (H460 cells; H460, 72 hours, read-out: EC50 of effect on viability): 1.7 µM; EC50 (H460 cells; Homo sapiens, NCI-H460, 72 h, H460, read-out: EC50 of effect on viability): 1.24 µM; Concentrations affecting Histone H2AX phosphorylation and PARP cleavage (H1299 cells [5]): above 3 μM
